Experimental data from the supplement of paper PMC13380429.

What was measured:
Settings in all cases: 72 h
Caco-2 [1] = test: cell viability relative to DMSO; higher = less toxic
Calu-3 [2] = test: as above
HepG2 [3] = test: as above
U2OS [4] = test: as above
Vero E6 [5] = test: as above
HepG2 [6] = test: relative viability EC50 (midpoint between 100% and the lowest measured viability); higher = less toxic
U2OS [7] = test: as above
Vero E6 [8] = test: as above
Caco-2 [9] = test: drug sensitivity score (DSS) for viability; higher = more toxic; extreme values may be limits of the assay
Calu-3 [10] = test: as above
HepG2 [11] = test: as above
U2OS [12] = test: as above
Vero E6 [13] = test: as above
Calu-3 [14] = test: relative viability EC50 (midpoint between 100% and the lowest measured viability); higher = less toxic

SMILES	cell viability (Caco-2 [1]; 1 nM)	cell viability (Caco-2 [1]; 10 nM)	cell viability (Caco-2 [1]; 100 nM)	cell viability (Caco-2 [1]; 1000 nM)	cell viability (Caco-2 [1]; 10000 nM)	cell viability (Calu-3 [2]; 1 nM)	cell viability (Calu-3 [2]; 10 nM)	cell viability (Calu-3 [2]; 100 nM)	cell viability (Calu-3 [2]; 1000 nM)	cell viability (Calu-3 [2]; 10000 nM)	cell viability (HepG2 [3]; 1 nM)	cell viability (HepG2 [3]; 10 nM)	cell viability (HepG2 [3]; 100 nM)	cell viability (HepG2 [3]; 1000 nM)	cell viability (HepG2 [3]; 10000 nM)	cell viability (U2OS [4]; 1 nM)	cell viability (U2OS [4]; 10 nM)	cell viability (U2OS [4]; 100 nM)	cell viability (U2OS [4]; 1000 nM)	cell viability (U2OS [4]; 10000 nM)	cell viability (Vero E6 [5]; 1 nM)	cell viability (Vero E6 [5]; 10 nM)	cell viability (Vero E6 [5]; 100 nM)	cell viability (Vero E6 [5]; 1000 nM)	cell viability (Vero E6 [5]; 10000 nM)	relative viability EC50 (HepG2 [6])	relative viability EC50 (U2OS [7])	relative viability EC50 (Vero E6 [8])	drug sensitivity score (Caco-2 [9])	drug sensitivity score (Calu-3 [10])	drug sensitivity score (HepG2 [11])	drug sensitivity score (U2OS [12])	drug sensitivity score (Vero E6 [13])	relative viability EC50 (Calu-3 [14])
CCCSc1ccc2[nH]c(NC(=O)OC)nc2c1 [albendazole]	87.7%	98.6%	96.9%	88%	66.7%	107%	102%	111%	94.7%	66.4%	103%	97.9%	85.6%	68.7%	33.1%	101%	100%	94.5%	81.1%	47.8%	105%	95.3%	104%	80.1%	34.6%	824 nM	1370 nM	1.39 µM	2.8	2.4	7.8	4.9	6.5	–
CCN1CCN(C(=O)Cc2ccc(Nc3ncc(F)c(Nc4ccc(C(=O)Nc5ccccc5Cl)cc4)n3)cc2)CC1 [aurora-a-inhibitor-i]	101%	93.4%	95.5%	98%	74.9%	101%	103%	109%	94.8%	84.5%	91.2%	90.7%	89.6%	93.9%	64.8%	100%	99.8%	99.2%	99.1%	12%	97%	106%	99.6%	93.4%	86.8%	–	3090 nM	> 10 µM	1.2	0.7	2.7	5	0.4	> 10 µM
CC(C)(O)[C@@H]1[C@H]2OC(=O)[C@@H]1[C@]1(O)C[C@H]3O[C@]34C(=O)O[C@H]2[C@]14C [picrotin]	–	–	–	–	–	–	–	–	–	–	–	–	–	–	–	–	–	–	–	–	–	–	–	–	–	–	–	–	–	0	0	0	–	–
CS(=O)(=O)c1ccc(-c2cn3ccccc3n2)cc1 [zolimidine]	–	–	–	–	–	–	–	–	–	–	117%	104%	87.3%	98.6%	93.8%	100%	94.7%	94.8%	93.5%	95.9%	107%	107%	105%	94.4%	88%	> 10000 nM	> 10000 nM	> 10 µM	–	–	0	0	0.3	–
COc1ccc(-c2oc3c(CC=C(C)C)c(O[C@@H]4O[C@H](CO)[C@@H](O)[C@H](O)[C@H]4O)cc(O)c3c(=O)c2O[C@@H]2O[C@@H](C)[C@H](O)[C@@H](O)[C@H]2O)cc1 [icariin]	–	–	–	–	–	–	–	–	–	–	–	–	–	–	–	–	–	–	–	–	–	–	–	–	–	–	–	–	–	0	0	0	0	–
CC(C)Cc1ccc([C@@H](C)C(=O)NS(C)(=O)=O)cc1 [reparixin]	–	–	–	–	–	–	–	–	–	–	–	–	–	–	–	–	–	–	–	–	–	–	–	–	–	–	–	–	–	0	0	0	0	–
Cn1cnc2c(F)c(Nc3ccc(Br)cc3F)c(C(=O)NOCCO)cc21 [binimetinib]	94%	87.3%	77.2%	73%	65.6%	94.7%	77.5%	66.4%	59.9%	37.2%	96%	83.6%	38%	23.7%	20.8%	97.9%	91.4%	92%	93.4%	43.9%	97.2%	92.4%	72.6%	56.5%	51.2%	32.3 nM	2200 nM	–	8.1	14.1	23.5	4.1	11.5	0.078 µM
CC(C)CCN1c2nc(Nc3cc(F)c(O)c(F)c3)ncc2N(C)C(=O)[C@@H]1C [BI-D1870]	95.1%	102%	97.5%	96.6%	71.1%	96%	107%	90.2%	83.7%	63.1%	105%	92.8%	102%	97.6%	58.9%	102%	103%	99%	98.7%	71.4%	105%	98.7%	96.5%	86.2%	30.9%	–	–	1.74 µM	1.8	3.5	2.4	1.4	6.1	–
NC(=S)N/N=C/c1coc2ccccc2c1=O.[Cl][Cu][Cl] [FPA-124]	106%	103%	96.1%	104%	70.4%	104%	103%	102%	99%	106%	94.5%	101%	97.5%	109%	95.3%	105%	99.1%	101%	97.3%	99.8%	–	–	–	–	–	> 10000 nM	> 10000 nM	–	1	0	0	0	–	> 10 µM
O=C(c1cn(Cc2cncn2Cc2ccc(Br)cc2)cc1-c1cccc2ccccc12)N1CCOCC1	99.1%	96.1%	94.4%	78.1%	63.5%	104%	96.7%	98.6%	68.1%	72.1%	107%	90.6%	98.3%	57.1%	16.3%	97.3%	99.4%	90.5%	80.3%	39.9%	99.8%	97.7%	95.4%	88.1%	64.5%	972 nM	1490 nM	–	4.3	5.6	9.8	5.5	2.9	–
COC(=O)CCC(=O)CN [methyl-aminolevulinate]	–	–	–	–	–	101%	96.5%	98%	100%	93.4%	83.8%	98.4%	94.5%	84%	87.8%	90.5%	96%	96.8%	97.3%	104%	97.1%	89%	99.5%	88.8%	105%	> 10000 nM	> 10000 nM	> 10 µM	–	0	0	0	0	> 10 µM
N#C/C(=C\c1ccc(O)c(O)c1)C(=O)NCCCc1ccccc1 [AG-555]	96.7%	100%	113%	84.1%	68.1%	112%	95.2%	101%	105%	88.4%	95.5%	89.9%	95.8%	95.4%	74.7%	99%	99.5%	103%	99.1%	88.7%	102%	102%	103%	103%	79.7%	–	> 10000 nM	> 10 µM	3.4	0	1.7	0	0.5	> 10 µM
Nc1ccc2ncnc(NCCc3ccc(Oc4ccccc4)cc3)c2c1 [EVP4593]	104%	96.9%	88%	78.4%	74.5%	106%	98.9%	97.7%	92.1%	86.5%	109%	109%	78.1%	20.2%	19.4%	103%	96.3%	94.7%	67.4%	64.5%	93.5%	90.2%	91.1%	73.3%	77%	149 nM	–	–	4.3	0.3	18	6.3	4.4	> 10 µM
